Experimental data reported in ChEMBL document CHEMBL1150933, “Cytotoxic sterols from the soft coral Nephthea erecta” (1998).
≈ marks a conversion by molar mass, not a printed value.

Experiments:
Type in all cases: functional
[1] = tested on: HT-29; assay: Cytotoxicity against human HT-29 cells after 6 days by MTT assay; conditions: HT-29, 144 h, read-out: ED50 (the source's name)
[2] = tested on: KB; assay: Cytotoxicity against human KB cells after 3 days by MTT assay; conditions: 72 h, read-out: ED50 (the source's name)
[3] = tested on: A549; assay: Cytotoxicity against human A549 cells after 6 days by MTT assay; conditions: A549, 144 h, read-out: ED50 (the source's name)
[4] = tested on: P388; assay: Cytotoxicity against mouse P388 cells after 3 days by MTT assay; conditions: P388, 72 h, read-out: ED50 (the source's name)

SMILES | EC50 [1] [µg/mL] | EC50 [2] [µg/mL] | EC50 [3] [µg/mL] | EC50 [4] [µg/mL]
C=C(CC[C@@H](C)[C@H]1CC[C@H]2[C@@H]3[C@@H](OC(C)=O)C=C4C[C@@H](O)CC[C@]4(CO)[C@H]3CC[C@]12C)C(C)C | 0.87 (≈ 1.84 µM) | 0.38 (≈ 0.804 µM) | 0.81 (≈ 1.71 µM) | 0.42 (≈ 0.888 µM)
C=C(CC[C@@H](C)[C@H]1C[C@@H](O)[C@H]2[C@@H]3CC=C4C[C@@H](O)CC[C@]4(CO)[C@H]3CC[C@@]21C)C(C)C | 0.17 (≈ 0.395 µM) | 0.6 (≈ 1.39 µM) | 0.41 (≈ 0.952 µM) | 0.07 (≈ 0.163 µM)
C=C(CC[C@@H](C)[C@H]1CC[C@H]2[C@@H]3C(=O)C=C4C[C@@H](O)CC[C@]4(CO)[C@H]3CC[C@]12C)C(C)C | 3.34 (≈ 7.79 µM) | > 50 | 4.09 (≈ 9.54 µM) | 0.4 (≈ 0.933 µM)
C=C(CC[C@@H](C)[C@H]1CC[C@H]2[C@@H]3[C@@H](O)C=C4C[C@@H](O)CC[C@]4(CO)[C@H]3CC[C@]12C)C(C)C | 0.72 (≈ 1.67 µM) | 0.58 (≈ 1.35 µM) | 0.69 (≈ 1.6 µM) | 0.24 (≈ 0.557 µM)
C=C(CC[C@@H](C)[C@H]1CC[C@H]2[C@@H]3CC=C4C[C@@H](O)CC[C@]4(CO)[C@H]3CC[C@]12C)C(C)C | 1.31 (≈ 3.16 µM) | 1.1 (≈ 2.65 µM) | 1.76 (≈ 4.24 µM) | 0.45 (≈ 1.09 µM)
C=C(CC[C@@H](C)[C@H]1CC[C@H]2[C@@H]3C[C@@H](O)[C@@]4(O)C[C@@H](O)CC[C@]4(CO)[C@H]3CC[C@]12C)C(C)C | 0.93 (≈ 2.07 µM) | 0.39 (≈ 0.869 µM) | 0.81 (≈ 1.81 µM) | 0.34 (≈ 0.758 µM)
